US20210315991A1, “COMBINATION INCLUDING A CPG-C TYPE OLIGONUCLEOTIDE AND A PD-1 ANTAGONIST FOR TREATING BREAST CANCER” (Surefire Medical, Inc. d/b/a TriSalus Life Sciences, priority 2018, published 2021)

Test system: human peripheral blood mononuclear cells (PBMCs)
Experiment: IFN-α secretion by human PBMC (ELISA)
Type: cell-based
Settings: for EC50: human PBMCs from healthy donors, IFN-α in supernatant by ELISA; for EC50 / IFN-α Max: 24 hours incubation; for IFN-α Max / maximum IFN-α levels induced, as compared to C69-10 and C69-11: human PBMCs; for IFN-α Max: ELISA, limit of maximal/minimal detection 13160/102 pg/ml; for maximum IFN-α levels induced, as compared to C69-10 and C69-11: 24 hours, result in words
Protocol: The activity of a candidate TLR9 agonist may be assessed in vitro by measuring interferon-alpha secretion by human peripheral blood mononuclear cells (PBMC) with an enzyme linked immunosorbent assay (ELISA). In particular, human PBMC are contacted with a series of graded doses of the candidate TLR9 agonist (and controls) for a period of about 24 hours. The EC50 value (in nM) and a max production level (in pg/mL) are then determined from a dose-response curve.
Activity of oligonucleotides (PN) was assessed in vitro by measurement of cytokine secretion by human peripheral blood mononuclear cells (PBMCs).
PBMCs were isolated from blood of healthy human donors using Ficoll-Paque. For IFN-α induction, duplicate cultures of PBMCs were incubated for 24 hours with increasing concentrations of oligonucleotides. IFN-α levels in cell culture supernatants were measured by ELISA (PBL Biomedical Laboratories, Piscataway, N.J.). The limit of maximal/minimal detection was 13160/102 pg/ml.

Row | Substance | EC50 | IFN-α Max | maximum IFN-α levels induced, as compared to C69-10 and C69-11
1 | C69-01: 5′-TCG AACGTTCGAACGTTCGAA CGTTCGAAT-3′ (SEQ ID NO: 4), CpG-C 2′-deoxyribopolynucleotide, phosphorothioate backbone (DNA TCGAACGTTCGAACGTTCGAACGTTCGAAT; DNA, all phosphorothioate, methylation of C not given here) | 61 nM | 6030 pg/mL | Higher maximum IFN-α levels
2 | C69-02: 5′-TCG AACGTTCGAACGTTCGAA CGTT-3′ (SEQ ID NO: 5), phosphorothioate backbone (DNA TCGAACGTTCGAACGTTCGAACGTT; DNA, all phosphorothioate, methylation of C not given here) | 49 nM | 6008 pg/mL | Higher maximum IFN-α levels
3 | C69-10: 5′-TTCG AACGTTCGAACGTTCGAAT-3′ (SEQ ID NO: 23), phosphorothioate backbone (DNA TTCGAACGTTCGAACGTTCGAAT; DNA, all phosphorothioate, methylation of C not given here) | 58 nM | 3820 pg/mL | –
4 | C69-11: 5′-TTTTCG AACGTTCGAACGTTCGAAATT-3′ (SEQ ID NO: 24), phosphorothioate backbone (DNA TTTTCGAACGTTCGAACGTTCGAAATT; DNA, all phosphorothioate, methylation of C not given here) | 65 nM | 1239 pg/mL | –
